Source: publication PMC9961948, “Interaction of Amphipathic Peptide from Influenza Virus M1 Protein with Mitochondrial Cytochrome Oxidase” (International Journal of Molecular Sciences, 2023)
Values joined by “and” are separate entries in the source; they are usually repeats but may differ in a detail not shown here. Identical values can stand only once. “Also recorded” adds a separate entry of the source. Like-named read-outs stand apart in the source and are kept apart here.

Assays:
[1] = biological target: T1, cytochrome c oxidase (CcO) purified from heart mitochondria (Bos taurus, UniProt P00396+P07471+P68530); conditions: earlier studies on steroids, Triton X-100 and thyroid hormones; ref [47],[48],[49]; read-out: dissociation constant of the complex between DM and BABS; cited from earlier work
T1 construct: Cytochrome c oxidase was purified from the heart mitochondria of Bos taurus; from tissue; host or cells: bovine heart mitochondria
Source text: The inhibition is notable by features characteristic of BABS regulatory site ligands such as some steroids and vitamin D [47], Triton Х-100 [48], and thyroid hormones Т3, Т4 [49]. […] The resistance of peroxidase activity is explained by the fact that the BABS ligands block the proton channel K, which is not involved in the p ...

[2] = biological target: T1, cytochrome c oxidase (CcO) purified from heart mitochondria; assay: Cytochrome oxidase activity of solubilized mitochondrial CcO (oxygen uptake); format: biochemical; conditions: for enzyme activation at low concentrations: solubilized CcO from bovine heart mitochondria and from R. sphaeroides, authors' unpublished data
[3] = Permeabilization of calcein-loaded asolectin liposomes (calcein release); conditions: 5 μM peptide
[4] = biological target: T2, CcO in rat liver mitochondria (Rattus norvegicus, UniProt P00406+P05503); assay: CcO activity in the mitochondrial membrane (respiration of rat liver mitochondria); format: biochemical; conditions: 100 μM peptide added in the course of respiration
T2 construct: Rat liver mitochondria were isolated by differential centrifugation; from tissue; host or cells: rat liver mitochondria
T2 sequence (P00406 whole entry, other chains not shown): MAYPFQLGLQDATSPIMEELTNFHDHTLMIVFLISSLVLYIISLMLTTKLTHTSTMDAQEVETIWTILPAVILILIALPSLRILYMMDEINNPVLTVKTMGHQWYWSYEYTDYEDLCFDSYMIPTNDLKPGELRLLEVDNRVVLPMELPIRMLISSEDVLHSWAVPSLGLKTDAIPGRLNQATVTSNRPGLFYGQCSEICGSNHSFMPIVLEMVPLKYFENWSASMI

Compound: CCCCCCCCCCCCO[C@@H]1O[C@H](CO)[C@@H](O[C@H]2O[C@H](CO)[C@@H](O)[C@H](O)[C@H]2O)[C@H](O)[C@H]1O [DM, dodecyl-maltoside, reference compound]
- Kd [1]: 1000 to 1500 µM
- Kd ([2]; dissociation constant of the enzyme-DM complex in the absence of P4 (Kc), solubilized mitochondrial CcO, X-axis intercept of Ki(app) for P4 versus [DM]): 500 µM and ~500 µM

Compound: C[C@H](CCC(=O)O)[C@H]1CC[C@H]2[C@@H]3[C@H](O)C[C@@H]4C[C@H](O)CC[C@]4(C)[C@H]3C[C@H](O)[C@]12C [cholate, reference compound]
- enzyme activation at low concentrations [2]: 1.5–2 fold

Compound: C[C@H](CCC(=O)O)[C@H]1CC[C@H]2[C@@H]3CC[C@@H]4C[C@H](O)CC[C@]4(C)[C@H]3C[C@H](O)[C@]12C [deoxycholate, reference compound]
- enzyme activation at low concentrations [2]: 1.5–2 fold
- maximum activation of CcO ([2]; solubilized mitochondrial CcO, 1 mM DM, 1.2 mM deoxycholate): approximately twice

Compound: Ac-STKLWEMLVELGNMDKAVKLWRKLSR-NH2 [A4]
- time to reach the 100% level of calcein release ([3]; 100% = after Triton X-100 0.1%): 3 min
- t1/2 of fluorescence increase (calcein release) ([3]; liposomes 0.1 mg lipid/mL, 20 mM MOPS/Tris pH 7.3, 0.2 mM EDTA, fluorescence 520 nm (excitation 490 nm)): ~18 s
- effect on respiration rate of mitochondria [4]: complete inhibition

Compound: Ac-WVGMALENRKLKKDRLKVLKMLRWT-NH2 [A1]
- calcein release compared with P4 and A4 [3]: more than two orders of magnitude slower
- rate of fluorescence increase (calcein release) [3]: < 1 % of the final level per 1 min
- Ki ([2]; solubilized bovine heart CcO 20 nM, oxygen uptake, Clark electrode, 25 °C, BM 50 mM Hepes/Tris pH 7.6, 50 mM KCl, 1 mM (0.05%) DM, 5 mM ascorbate, 0.1 mM TMPD, 10 μM cytochrome c, fit by Equation (1), read-out: Inhibition of CcO, Solubilized, Ki(app)): 0.0208 mM
- effect on respiration rate of mitochondria [4]: does not reduce the rate of enzyme activity; also recorded: almost does not change
